Legend:
Format in all cases: physicochemical
[1] = Competitive equilibration experiments; details: 25° C. and 50° C.
Protocol: These solvents were saturated with the compound of Formula (I) before addition of the polymorph seeds. Obtained suspension was stirred at 25° C. or 50° C. for 5 days. Solid part (wet cake) was isolated by filtration and investigated by XRPD.

[2] = Grinding simulation experiments - wet grinding (granulation)
Protocol: Water or ethanol was added drop wise to about 20 mg of Form A, Form D, or Form T until solid was wetted sufficiently. Vortex was applied between each addition. Samples were dried under ambient condition for 10 min. Potential form transition and degree of crystallinity were evaluated by XRPD.

[3] = Variable humidity and temperature XRPD experiments
Protocol: Based on DVS and DSC results of Form C, Form C starts to loss water when humidity is below 30% or when temperature is higher than about 44° C. […] In order to determine identity of potential form changes after the dehydration and upon the solid-solid transition, variable humidity and variable temperature XRPD techniques were applied. XRPD patterns of the sample were measured online under 25° C./ambient environment (initial)-120° C./N2 protection-25° C./ambient environment-25° C./80% RH (40 min)-25° C./0% RH (15 h), and 25° C./ambient environment (initial)-250° C./N2 protection-25° C./ambient environment. […] Form L coverts back to Form C after exposure to 25° C./80% RH for 40 min.
Based on DVS and DSC results of Form D, Form D starts to loss water when humidity is below 10% or when temperature is higher than 46° C. In order to determine identity of the dehydration product, variable humidity and variable temperature XRPD techniques were applied. XRPD patterns of the sample were measured online with a temperature cycle of 25° C./ambient environment (initial)-130° C./N2 protection (10 min)-25° C./N2 protection-25° C./ambient environment (3h) and two water sorption and desorption cycles of 50% RH (initial)-90% RH (3h)-60% RH (2h)-40% RH (2h)-20% RH (3h)-10% RH (3h)-0% RH (6h)-10% RH (3h)-20% RH (3h)-50% RH at 25° C. […] (higher than dehydration temperature). Form S converts back to Form D after exposure to ambient condition for 3 h.
In order to investigate potential form change of Form A upon heating, variable temperature XRPD technique was applied. XRPD patterns of the sample were measured online with a temperature cycle of 25° C. (initial)-50° C./N2 protection-70° C./N2 protection-250° C./N2 protection-25° C./N2 protection-25° C./ambient condition (3h). […] Form A converts to Form U when temperature is 250° C., and Form U converts to Form T after cooling to 25° C.

[4] = Vapor diffusion experiments; details: VD6 Ethanol (8), anti-solvent t-Butyl methyl ether, 1:4, room temperature
Protocol: After sonication for about 30 seconds, obtained solution or suspension is filtered by a 0.45 μm syringe membrane filter. A clear solution is obtained. A suitable volume of the clear solution is transferred into a small glass vial (8 mL) without a lid and the lidless small vial was placed into a large glass vial (40 mL) containing anti-solvents in the bottom (solvent: anti-solvent=1:4, v/v). The large vials are tightly capped and placed at room temperature. Precipitates were collected by filtration. Solid part (wet cake) was investigated by XRPD.

[5] = Equilibration with solvents at 50° C. for 1 week; details: XRPD of wet cake
Protocol: Obtained suspension was filtered. The solid part (wet cake) was investigated by XRPD. When differences were observed, additional investigations were performed (e.g. DSC, TGA etc.).

[6] = Crystallization from hot saturated solutions by fast cooling; details: 50° C. to ice bath
Protocol: (§1) Obtained solution or suspension was filtered by a 0.45 μm syringe membrane filter. Clear solutions were put into an ice bath and agitated. Precipitates were collected by filtration. The solid part (wet cake) was investigated by XRPD. When differences were observed, additional investigations were performed (e.g. DSC, TGA, etc.).

[7] = Crystallization from hot saturated solutions by slow cooling; details: 50° C. to 5° C. at 0.1° C./min
Protocol: as §1, with “cooled to 5° C. at 0.1° C./min.” for “put into an ice bath and agitated.”

[8] = Temperature cycling experiments; details: TC8 Acetone/water = 1/1 (v/v) (62 mg/mL), 5-50° C., 6 cycles
Protocol: After 6 cycles, precipitates were collected at 5° C. by centrifugation. The solid part (wet cake) was investigated by XRPD. When differences were observed, additional investigations were performed (e.g. DSC, TGA etc.).

[9] = Precipitation by addition of anti-solvent; details: 1/5 (v:v)
Protocol: Anti-solvent was added into the obtained solutions slowly. Precipitates were collected by filtration. The solid part (wet cake) was investigated by XRPD. When differences were observed, additional investigations will be performed (e.g. […] etc.).

[10] = Crystallization at room temperature by slow evaporation; details: ambient condition
Text: Combined with approximate solubility experiment, solubility samples were filtered by 0.45 μm nylon filter. Obtained solutions were slow evaporated at ambient condition. Solid residues were examined for their polymorphic form.

[11] = variable temperature XRPD, N2 protection

## Nc1nc(=O)n(-c2ccccc2Cl)c2nc(C(F)(F)F)ccc12 [Form A, 4-Amino-1-(2-chlorophenyl)-7-(trifluoromethyl)pyrido[2,3-d]pyrimidin-2(1H)-one]
[1]
  form obtained in competitive equilibration experiments (relative stability of Form A and Form I): Form A were obtained from all the experiments
[2]; Ethanol
  XRPD after wet grinding: substantially amorphous
[2]; wet grinding, XRPD
  tolerance to granulation with ethanol or water: poor tolerance
[3]; VT16 70° C./37% RH (10 min)
  XRPD (XRPD method 2): Form A
[3]; VT18 25° C./N2 protection (10 min)
  XRPD (XRPD method 2): Form T
[3]; VT19 25° C./37% RH (3 h)
  XRPD (XRPD method 2): Form T
[3]; [11]
  form change after heating to 70° C.: no form change
  form obtained on heating to 250° C.: Form U

## Nc1nc(=O)n(-c2ccccc2Cl)c2nc(C(F)(F)F)ccc12 [solid state Form V, 4-Amino-1-(2-chlorophenyl)-7-(trifluoromethyl)pyrido[2,3-d]pyrimidin-2(1H)-one]
[4]
  Crystalline Form formed by vapor diffusion: Form H
[5]; EQ20 Water (64 mg/mL)
  Crystalline Form formed by equilibration: Form D (mono hydrate)
[5]; EQ21 Methanol (63 mg/mL)
  Crystalline Form formed by equilibration: Form C (hemi-hydrate)
[5]; EQ22 Methanol/water = 1/1 (v/v) (64 mg/mL)
  Crystalline Form formed by equilibration: Form E (hemi-hydrate)
[5]; EQ24 Ethanol/water = 1/1 (v/v) (63 mg/mL)
  Crystalline Form formed by equilibration: Form C (hemi-hydrate)
[5]; EQ26 Acetone (65 mg/mL)
  Crystalline Form formed by equilibration: Form G
[5]; EQ27 Acetone/water = 1/1 (v/v) (63 mg/mL)
  Crystalline Form formed by equilibration: Form I
[5]; EQ29 t-Butyl methyl ether (65 mg/mL)
  Crystalline Form formed by equilibration: Form H (MTBE solvate)
[5]; EQ30 t-Butyl methyl ether/water = 95/5 (v/v) (63 mg/mL)
  Crystalline Form formed by equilibration: Form H (MTBE solvate)
[6]; FC1 Methanol (30 mg/mL)
  Crystalline Form formed by fast cooling of hot saturated solution: Form C
[6]; FC2 Ethanol (13 mg/mL)
  Crystalline Form formed by fast cooling of hot saturated solution: Solid state Form V
[6]; FC3 2-Propanol (7 mg/mL)
  Crystalline Form formed by fast cooling of hot saturated solution: Form J (IPA solvate)
[6]; FC4 Acetone (7 mg/mL)
  Crystalline Form formed by fast cooling of hot saturated solution: Form G
[6]; FC5 Methanol/water = 1/1 (v/v) (6 mg/mL)
  Crystalline Form formed by fast cooling of hot saturated solution: Form C
[6]; FC6 Ethanol/water = 1/1 (v/v) (8 mg/mL)
  Crystalline Form formed by fast cooling of hot saturated solution: Form F
[6]; FC7 Methanol/MTBE = 1/1 (v/v) (13 mg/mL)
  Crystalline Form formed by fast cooling of hot saturated solution: Form H (MTBE solvate)
[7]; SC2 Ethanol (14 mg/mL)
  Crystalline Form formed by slow cooling of hot saturated solution: Form F
[7]; SC4 Acetone (7 mg/mL)
  Crystalline Form formed by slow cooling of hot saturated solution: Form G
[7]; SC6 Ethanol/water = 1/1 (v/v) (8 mg/mL)
  Crystalline Form formed by slow cooling of hot saturated solution: Form F
[7]; SC8 Ethanol/acetone = 1/1 (v/v) (16 mg/mL)
  Crystalline Form formed by slow cooling of hot saturated solution: Form G
[8]
  Crystalline Form formed by temperature cycling: Form G
[9]; AS5 Ethanol (7), anti-solvent Heptane
  Crystalline Form formed by addition of anti-solvent: Form G
[9]; AS8 Ethanol (7), anti-solvent Water
  Crystalline Form formed by addition of anti-solvent: Form F
[10]; SE1 Methanol (15 mg/mL)
  Crystalline Form formed by slow evaporation: Solid state Form V
[10]; SE2 Ethanol (7 mg/mL)
  Crystalline Form formed by slow evaporation: Form F with low crystalline
[10]; SE3 2-Propanol (5 mg/mL)
  Crystalline Form formed by slow evaporation: Form J (IPA solvate)
[10]; SE6 Acetone (5 mg/mL)
  Crystalline Form formed by slow evaporation: Form G
[10]; SE7 Methyl ethyl ketone (5 mg/mL)
  Crystalline Form formed by slow evaporation: Form G
[10]; SE9 Tetrahydrofuran (5 mg/mL)
  Crystalline Form formed by slow evaporation: Form K
[10]; SE12 Methanol/Ethyl acetate = 1/1 (v/v) (7 mg/mL)
  Crystalline Form formed by slow evaporation: Solid state Form V
[10]; SE13 Methanol/Acetonitrile = 1/1 (v/v) (11 mg/mL)
  Crystalline Form formed by slow evaporation: Solid state Form V
